System: MV-4-11 cells
Assay: Gene expression microarray analysis (Affymetrix PrimeView) and GSEA
Format: cell-based, human
Design: RFU PODN (11730768_x_at) / Fold change /veh PODN (11730768_x_at) / RFU LINC00158 (11744669_a_at) / Fold change /veh LINC00158 (11744669_a_at) / RFU DUSP10 (11751237_a_at) / Fold change /veh DUSP10 (11751237_a_at) / RFU ID3 (11757404_x_at) / Fold change /veh ID3 (11757404_x_at) / RFU PLEKHG5 (11737974_s_at) / Fold change /veh PLEKHG5 (11737974_s_at) / RFU LRRC4B (11730491_at) / Fold change /veh LRRC4B (11730491_at) / RFU GIMAP4 (11747438_a_at) / Fold change /veh GIMAP4 (11747438_a_at) / RFU KRT8 (11758183_x_at) / Fold change /veh KRT8 (11758183_x_at) / RFU CNN1 (11734310_a_at) / Fold change /veh CNN1 (11734310_a_at) / RFU VPS37D (11726825_at) / Fold change /veh VPS37D (11726825_at) / RFU C10orf10 (11716522_x_at) / Fold change /veh C10orf10 (11716522_x_at) / RFU KIR2DL2 /// KIR2DL4 /// KIR2DL5A /// KIR2DL5B /// KIR2DS1 /// KIR2DS2 /// KIR2DS3 /// KIR2DS4 /// KIR3DL3 /// KIR3DL3 /// KIR3DS1 (11738374_at) / Fold change /veh KIR2DL2 /// KIR2DL4 /// KIR2DL5A /// KIR2DL5B /// KIR2DS1 /// KIR2DS2 /// KIR2DS3 /// KIR2DS4 /// KIR3DL3 /// KIR3DL3 /// KIR3DS1 (11738374_at) / RFU C1QL1 (11718748_at) / Fold change /veh C1QL1 (11718748_at) / RFU TMPRSS4 (11747572_a_at) / Fold change /veh TMPRSS4 (11747572_a_at) / RFU HAMP (11756126_x_at) / Fold change /veh HAMP (11756126_x_at) / RFU RNFT2 (11725882_a_at) / Fold change /veh RNFT2 (11725882_a_at) / RFU NR4A2 (11747474_a_at) / Fold change /veh NR4A2 (11747474_a_at) / RFU ABCC12 (11746883_a_at) / Fold change /veh ABCC12 (11746883_a_at) / RFU TMEM136 (11760407_x_at) / Fold change /veh TMEM136 (11760407_x_at) / RFU CLDN22 /// WWC2 (11732394_at) / Fold change /veh CLDN22 /// WWC2 (11732394_at) / RFU HLA-DPB1 (11760878_x_at) / Fold change /veh HLA-DPB1 (11760878_x_at) / RFU SPINT1 (11716480_a_at) / Fold change /veh SPINT1 (11716480_a_at) / RFU GAP43 (11754022_s_at) / Fold change /veh GAP43 (11754022_s_at) / RFU A4GNT (11735810_at) / Fold change /veh A4GNT (11735810_at) / RFU PRB3 (11715151_x_at) / Fold change /veh PRB3 (11715151_x_at) / RFU TUBB4B (11761932_at) / Fold change /veh TUBB4B (11761932_at) / RFU CAPN14 (11732068_a_at) / Fold change /veh CAPN14 (11732068_a_at) / RFU TMCC2 (11721928_a_at) / Fold change /veh TMCC2 (11721928_a_at) / RFU IRGQ (11745062_a_at) / Fold change /veh IRGQ (11745062_a_at) / RFU FAM174B (11720279_a_at) / Fold change /veh FAM174B (11720279_a_at) / RFU TMPRSS4 (11748680_a_at) / Fold change /veh TMPRSS4 (11748680_a_at) / RFU FAM212B (11763350_a_at) / Fold change /veh FAM212B (11763350_a_at) / RFU PLEKHG5 (11743358_a_at) / Fold change /veh PLEKHG5 (11743358_a_at) / RFU ZSCAN30 (11745921_a_at) / Fold change /veh ZSCAN30 (11745921_a_at) / RFU CMKLR1 (11741424_a_at) / Fold change /veh CMKLR1 (11741424_a_at) / RFU LOC101060620 /// MAPK8IP1 (11723275_at) / Fold change /veh LOC101060620 /// MAPK8IP1 (11723275_at) / RFU SPTSSB (11747773_x_at) / Fold change /veh SPTSSB (11747773_x_at) / RFU PRSS12 (11739890_at) / Fold change /veh PRSS12 (11739890_at) / RFU BIN1 (11741810_x_at) / Fold change /veh BIN1 (11741810_x_at) / RFU WNT11 (11732464_a_at) / Fold change /veh WNT11 (11732464_a_at) / RFU C10orf10 (11716521_a_at) / Fold change /veh C10orf10 (11716521_a_at) / RFU C5orf56 (11738089_at) / Fold change /veh C5orf56 (11738089_at) / RFU CYB561 (11721691_x_at) / Fold change /veh CYB561 (11721691_x_at) / RFU ANKRD19P (11752326_a_at) / Fold change /veh ANKRD19P (11752326_a_at) / RFU OR2T12 /// OR2T33 /// OR2T8 (11738714_s_at) / Fold change /veh OR2T12 /// OR2T33 /// OR2T8 (11738714_s_at) / RFU VCAN (11748164_a_at) / Fold change /veh VCAN (11748164_a_at) / RFU JSRP1 (11732532_at) / Fold change /veh JSRP1 (11732532_at) / RFU KRTAP10-11 (11738290_x_at) / Fold change /veh KRTAP10-11 (11738290_x_at) / RFU MYO3A (11730013_a_at) / Fold change /veh MYO3A (11730013_a_at) / RFU EBF3 (11725865_a_at) / Fold change /veh EBF3 (11725865_a_at) / RFU CAMK2N1 (11719241_x_at) / Fold change /veh CAMK2N1 (11719241_x_at) / RFU C5orf56 (11738088_a_at) / Fold change /veh C5orf56 (11738088_a_at) / RFU OLFML3 (11715873_a_at) / Fold change /veh OLFML3 (11715873_a_at) / RFU LOC100653217 /// NTM (11731650_a_at) / Fold change /veh LOC100653217 /// NTM (11731650_a_at) / RFU MAPK11 (11762145_a_at) / Fold change /veh MAPK11 (11762145_a_at) / RFU FIZ1 (11724087_x_at) / Fold change /veh FIZ1 (11724087_x_at) / RFU OASL (11726364_x_at) / Fold change /veh OASL (11726364_x_at) / RFU SOX15 (11748057_x_at) / Fold change /veh SOX15 (11748057_x_at) / RFU CD79A (11719716_a_at) / Fold change /veh CD79A (11719716_a_at) / RFU HIST1H1D (11736915_at) / Fold change /veh HIST1H1D (11736915_at) / RFU CASKIN2 (11723855_a_at) / Fold change /veh CASKIN2 (11723855_a_at) / RFU LOC730098 (11760151_x_at) / Fold change /veh LOC730098 (11760151_x_at) / RFU OR4N2 (11742367_at) / Fold change /veh OR4N2 (11742367_at) / RFU PRRT2 (11749266_a_at) / Fold change /veh PRRT2 (11749266_a_at) / RFU SNX32 (11753110_a_at) / Fold change /veh SNX32 (11753110_a_at) / RFU CDHR5 (11726645_a_at) / Fold change /veh CDHR5 (11726645_a_at) / RFU RCAN1 (11760418_a_at) / Fold change /veh RCAN1 (11760418_a_at) / RFU FAM167A (11723789_a_at) / Fold change /veh FAM167A (11723789_a_at) / RFU FAM26E (11764081_at) / Fold change /veh FAM26E (11764081_at) / RFU ISYNA1 (11749810_s_at) / Fold change /veh ISYNA1 (11749810_s_at) / RFU ACY1 (11761880_at) / Fold change /veh ACY1 (11761880_at) / RFU 11764098_at / Fold change /veh 11764098_at / RFU SAMD14 (11745864_x_at) / Fold change /veh SAMD14 (11745864_x_at) / RFU NPB (11741838_a_at) / Fold change /veh NPB (11741838_a_at) / RFU TMPRSS6 (11731388_a_at) / Fold change /veh TMPRSS6 (11731388_a_at) / RFU KRTAP10-2 (11738614_at) / Fold change /veh KRTAP10-2 (11738614_at) / RFU ARHGAP8 /// PRR5-ARHGAP8 (11727945_x_at) / Fold change /veh ARHGAP8 /// PRR5-ARHGAP8 (11727945_x_at) / RFU KRTAP5-7 /// NADSYN1 (11734609_at) / Fold change /veh KRTAP5-7 /// NADSYN1 (11734609_at) / RFU RASL12 (11751679_a_at) / Fold change /veh RASL12 (11751679_a_at) / RFU CDKN2B (11736163_a_at) / Fold change /veh CDKN2B (11736163_a_at) / RFU PRF1 (11729649_at) / Fold change /veh PRF1 (11729649_at) / RFU, ZNF638 /// ZNF638-IT1 / Fold change vs veh, ZNF638 /// ZNF638-IT1 / RFU, PANK3 / Fold change vs veh, PANK3 / RFU, SH3YL1 / Fold change vs veh, SH3YL1 / RFU, ZEB2 / Fold change vs veh, ZEB2 / RFU, NRIP1 / Fold change vs veh, NRIP1 / RFU, PTTG1IP / Fold change vs veh, PTTG1IP / RFU, CAPN2 / Fold change vs veh, CAPN2 / RFU, MED14 / Fold change vs veh, MED14 / RFU, SNORA58 / Fold change vs veh, SNORA58 / RFU, C1orf63 / Fold change vs veh, C1orf63 / RFU, LRRFIP1 / Fold change vs veh, LRRFIP1 / RFU, NDUFAF7 / Fold change vs veh, NDUFAF7 / RFU, SLC12A2 / Fold change vs veh, SLC12A2 / RFU, IBTK / Fold change vs veh, IBTK / RFU, ESF1 / Fold change vs veh, ESF1 / Fold change vs veh, TMEM50B / RFU, TAOK1 / Fold change vs veh, TAOK1 / RFU, ACBD3 / Fold change vs veh, ACBD3 / RFU, TMA16 / Fold change vs veh, TMA16 / RFU, RWDD3 / Fold change vs veh, RWDD3 / RFU, BCAT1 / Fold change vs veh, BCAT1 / RFU, EDEM3 / Fold change vs veh, EDEM3 / RFU, TMEM33 / Fold change vs veh, TMEM33 / RFU, WDR75 / Fold change vs veh, WDR75 / RFU, AHCTF1 / Fold change vs veh, AHCTF1 / RFU, TFRC / Fold change vs veh, TFRC / RFU, ZDHHC17 / Fold change vs veh, ZDHHC17 / RFU, NOM1 / Fold change vs veh, NOM1 / RFU, ARL8B / Fold change vs veh, ARL8B / RFU, ZBTB11 / Fold change vs veh, ZBTB11 / RFU, TAMM41 / Fold change vs veh, TAMM41 / RFU, KIAA1704 /// LOC100996395 / Fold change vs veh, KIAA1704 /// LOC100996395 / RFU, ING1 / Fold change vs veh, ING1 / RFU, TRMT61B / Fold change vs veh, TRMT61B / RFU, FUBP3 / Fold change vs veh, FUBP3 / RFU, TP53 / Fold change vs veh, TP53 / RFU, TNKS2 / Fold change vs veh, TNKS2 / RFU, ZFP14 / Fold change vs veh, ZFP14 / RFU, ACTR2 / Fold change vs veh, ACTR2 / RFU, PPP3R1 / Fold change vs veh, PPP3R1 / RFU, PIK3R1 / Fold change vs veh, PIK3R1 / RFU, HNRNPA1 / Fold change vs veh, HNRNPA1 / RFU, RNF170 / Fold change vs veh, RNF170 / RFU, ZNF28 / Fold change vs veh, ZNF28 / RFU, RNGTT / Fold change vs veh, RNGTT / RFU, OGT / Fold change vs veh, OGT / RFU, BRD1 / Fold change vs veh, BRD1 / RFU, MARS / Fold change vs veh, MARS / RFU, ZNF655 / Fold change vs veh, ZNF655 / RFU, FAHD1 / Fold change vs veh, FAHD1 / RFU, BDP1 / Fold change vs veh, BDP1 / RFU, LRRCC1 / Fold change vs veh, LRRCC1 / RFU, ARID1A / Fold change vs veh, ARID1A / RFU, ZNF146 / Fold change vs veh, ZNF146 / RFU, ZNF330 / Fold change vs veh, ZNF330 / RFU, GPN3 / Fold change vs veh, GPN3 / RFU, C9orf123 / Fold change vs veh, C9orf123 / RFU, N4BP2L2 / Fold change vs veh, N4BP2L2 / RFU, ARFIP1 / Fold change vs veh, ARFIP1 / RFU, FAM179B / Fold change vs veh, FAM179B / RFU, BCL10 / Fold change vs veh, BCL10 / RFU, UHRF1BP1L / Fold change vs veh, UHRF1BP1L / RFU, BET1 / Fold change vs veh, BET1 / RFU, CNOT2 / Fold change vs veh, CNOT2 / RFU, ZNF268 / Fold change vs veh, ZNF268 / Fold change vs veh, ZNF507 / RFU, DGCR2 / Fold change vs veh, DGCR2 / RFU, WDSUB1 / Fold change vs veh, WDSUB1 / Fold change vs veh, HSP90B1 /// MIR3652 / RFU, ADSS / Fold change vs veh, ADSS / RFU, GK / Fold change vs veh, GK / RFU, ZNF148 / Fold change vs veh, ZNF148 / RFU, TAF9 / Fold change vs veh, TAF9 / RFU, SLC1A5 / Fold change vs veh, SLC1A5 / RFU, SLMO2 / Fold change vs veh, SLMO2 / RFU, ABCC4 / Fold change vs veh, ABCC4 / RFU, LOC101060439 /// RAP1B / Fold change vs veh, LOC101060439 /// RAP1B / RFU, RFX7 / Fold change vs veh, RFX7 / RFU, GTPBP10 / Fold change vs veh, GTPBP10 / RFU, CNEP1R1 / Fold change vs veh, CNEP1R1 / RFU, BIVM-ERCC5 /// ERCC5 / Fold change vs veh, BIVM-ERCC5 /// ERCC5 / RFU, ILF3 / Fold change vs veh, ILF3 / RFU 11762660_at / Fold change /veh 11762660_at / RFU VCAN (11757783_s_at) / Fold change /veh VCAN (11757783_s_at) / RFU DDX43 (11728927_at) / Fold change /veh DDX43 (11728927_at) / RFU KRT8 (11758188_x_at) / Fold change /veh KRT8 (11758188_x_at) / RFU NKD1 (11759106_at) / Fold change /veh NKD1 (11759106_at) / RFU SRD5A1 (11742802_a_at) / Fold change /veh SRD5A1 (11742802_a_at) / RFU TPSAB1 /// TPSB2 (11721975_s_at) / Fold change /veh TPSAB1 /// TPSB2 (11721975_s_at) / RFU GSTM3 (11746129_a_at) / Fold change /veh GSTM3 (11746129_a_at) / RFU IL23R (11737362_x_at) / Fold change /veh IL23R (11737362_x_at) / RFU TMEM51 (11727254_a_at) / Fold change /veh TMEM51 (11727254_a_at) / RFU PIWIL2 (11732686_x_at) / Fold change /veh PIWIL2 (11732686_x_at) / RFU ORM1 (11744905_x_at) / Fold change /veh ORM1 (11744905_x_at) / RFU CCDC152 (11743942_at) / Fold change /veh CCDC152 (11743942_at) / RFU ECM1 (11717891_a_at) / Fold change /veh ECM1 (11717891_a_at) / RFU IL23R (11748794_a_at) / Fold change /veh IL23R (11748794_a_at) / RFU TNFAIP8L3 (11732012_x_at) / Fold change /veh TNFAIP8L3 (11732012_x_at) / RFU MBOAT4 (11741988_at) / Fold change /veh MBOAT4 (11741988_at) / RFU 11764193_at / Fold change /veh 11764193_at / RFU TMEM53 (11763286_at) / Fold change /veh TMEM53 (11763286_at) / RFU MAGEB2 (11727129_at) / Fold change /veh MAGEB2 (11727129_at) / RFU TMEM200A (11744735_a_at) / Fold change /veh TMEM200A (11744735_a_at) / RFU CCDC152 (11751479_a_at) / Fold change /veh CCDC152 (11751479_a_at) / RFU FAM211A (11726209_a_at) / Fold change /veh FAM211A (11726209_a_at) / RFU RGS16 (11746705_a_at) / Fold change /veh RGS16 (11746705_a_at) / RFU VCAN (11755009_s_at) / Fold change /veh VCAN (11755009_s_at) / RFU RHOB (11743442_s_at) / Fold change /veh RHOB (11743442_s_at) / RFU RGS16 (11720943_a_at) / Fold change /veh RGS16 (11720943_a_at) / RFU RGS16 (11720944_at) / Fold change /veh RGS16 (11720944_at) / RFU, VPS4B / Fold change vs veh, VPS4B / RFU, CREB1 / Fold change vs veh, CREB1 / RFU, DNAJC13 / Fold change vs veh, DNAJC13 / RFU, GNAQ / Fold change vs veh, GNAQ / RFU, CDK5R1 / Fold change vs veh, CDK5R1 / RFU, ZRANB3 / Fold change vs veh, ZRANB3 / RFU, CUL4A / Fold change vs veh, CUL4A / RFU, CCNY / Fold change vs veh, CCNY / RFU, UFL1 / Fold change vs veh, UFL1 / RFU, COG3 / Fold change vs veh, COG3 / RFU, DIAPH2 / Fold change vs veh, DIAPH2 / RFU, SKA2 / Fold change vs veh, SKA2 / RFU, AFF3 / Fold change vs veh, AFF3 / RFU, LMF1 / Fold change vs veh, LMF1 / RFU, IPO11 / Fold change vs veh, IPO11 / RFU, DFFB / Fold change vs veh, DFFB / RFU, FOXP1 / Fold change vs veh, FOXP1 / RFU, CARD8 / Fold change vs veh, CARD8 / RFU, STRN3 / Fold change vs veh, STRN3 / RFU, ADK / Fold change vs veh, ADK / RFU, RASSF2 / Fold change vs veh, RASSF2 / RFU, WIPF1 / Fold change vs veh, WIPF1 / RFU, LARP1B / Fold change vs veh, LARP1B / RFU, RASA1 / Fold change vs veh, RASA1 / RFU, RB1 / Fold change vs veh, RB1 / RFU, PPFIA1 / Fold change vs veh, PPFIA1 / RFU, MAT2A / Fold change vs veh, MAT2A / RFU, CCT5 / Fold change vs veh, CCT5 / RFU, WDR92 / Fold change vs veh, WDR92 / RFU, CUX1 / Fold change vs veh, CUX1 / RFU, TTC7A / Fold change vs veh, TTC7A / RFU, TMEM135 / Fold change vs veh, TMEM135 / RFU, DEPTOR / Fold change vs veh, DEPTOR / RFU, CPM / Fold change vs veh, CPM / RFU, DNAJB6 / Fold change vs veh, DNAJB6 / RFU, CACNA2D3 / Fold change vs veh, CACNA2D3 / RFU, DTX4 / Fold change vs veh, DTX4 / RFU, TFCP2 / Fold change vs veh, TFCP2 / RFU, GMCL1 /// GMCL1P1 / Fold change vs veh, GMCL1 /// GMCL1P1 / RFU, AEBP2 / Fold change vs veh, AEBP2 / RFU, SNHG1 /// SNORD22 /// SNORD25 /// SNORD26 /// SNORD27 /// SNORD28 /// SNORD29 /// SNORD31 / Fold change vs veh, SNHG1 /// SNORD22 /// SNORD25 /// SNORD26 /// SNORD27 /// SNORD28 /// SNORD29 /// SNORD31 / Fold change (Aza/veh), C12orf56 (ProbeSet 11735607_a_at) / Fold change (ACY-1035/veh), C12orf56 (ProbeSet 11735607_a_at) / Fold change (Aza/veh), FGFR1OP (ProbeSet 11751329_s_at) / Fold change (ACY-1035/veh), FGFR1OP (ProbeSet 11751329_s_at) / Fold change (Aza/veh), VPS36 (ProbeSet 11739960_a_at) / Fold change (ACY-1035/veh), VPS36 (ProbeSet 11739960_a_at) / RFU SYPL1 (11715823_x_at) / Fold change /veh SYPL1 (11715823_x_at) / RFU IGFBP7 (11715501_s_at) / Fold change /veh IGFBP7 (11715501_s_at) / RFU REEP3 (11722064_at) / Fold change /veh REEP3 (11722064_at) / RFU IGLL1 (11728026_x_at) / Fold change /veh IGLL1 (11728026_x_at): dose or concentration left out as unconfirmed
Conditions: MV-4-11 cells, 48 hours

Nc1ccc(-c2cccs2)cc1NC(=O)c1ccc2c(c1)cc(C1CC1)n2CCN1CCOCC1 [ACY-1035]
RFU C1QL1 (11718748_at): 611.11 RFU

Reference: paper PMC5218480 (PLoS ONE, 2017)
